Experimental findings from US20210139454A1, “FORMAMIDE COMPOUND, PREPARATION METHOD THEREFOR AND APPLICATION THEREOF” (SHENZHEN CHIPSCREEN BIOSCIENCES CO., LTD., priority 2018, published 2021) are described below.

This assay addresses T1, recombinant human ASK1 (Homo sapiens, UniProt Q99683).
T1 construct: purchased Invitrogen PR7349B
T1 sequence (Q99683 1-1374): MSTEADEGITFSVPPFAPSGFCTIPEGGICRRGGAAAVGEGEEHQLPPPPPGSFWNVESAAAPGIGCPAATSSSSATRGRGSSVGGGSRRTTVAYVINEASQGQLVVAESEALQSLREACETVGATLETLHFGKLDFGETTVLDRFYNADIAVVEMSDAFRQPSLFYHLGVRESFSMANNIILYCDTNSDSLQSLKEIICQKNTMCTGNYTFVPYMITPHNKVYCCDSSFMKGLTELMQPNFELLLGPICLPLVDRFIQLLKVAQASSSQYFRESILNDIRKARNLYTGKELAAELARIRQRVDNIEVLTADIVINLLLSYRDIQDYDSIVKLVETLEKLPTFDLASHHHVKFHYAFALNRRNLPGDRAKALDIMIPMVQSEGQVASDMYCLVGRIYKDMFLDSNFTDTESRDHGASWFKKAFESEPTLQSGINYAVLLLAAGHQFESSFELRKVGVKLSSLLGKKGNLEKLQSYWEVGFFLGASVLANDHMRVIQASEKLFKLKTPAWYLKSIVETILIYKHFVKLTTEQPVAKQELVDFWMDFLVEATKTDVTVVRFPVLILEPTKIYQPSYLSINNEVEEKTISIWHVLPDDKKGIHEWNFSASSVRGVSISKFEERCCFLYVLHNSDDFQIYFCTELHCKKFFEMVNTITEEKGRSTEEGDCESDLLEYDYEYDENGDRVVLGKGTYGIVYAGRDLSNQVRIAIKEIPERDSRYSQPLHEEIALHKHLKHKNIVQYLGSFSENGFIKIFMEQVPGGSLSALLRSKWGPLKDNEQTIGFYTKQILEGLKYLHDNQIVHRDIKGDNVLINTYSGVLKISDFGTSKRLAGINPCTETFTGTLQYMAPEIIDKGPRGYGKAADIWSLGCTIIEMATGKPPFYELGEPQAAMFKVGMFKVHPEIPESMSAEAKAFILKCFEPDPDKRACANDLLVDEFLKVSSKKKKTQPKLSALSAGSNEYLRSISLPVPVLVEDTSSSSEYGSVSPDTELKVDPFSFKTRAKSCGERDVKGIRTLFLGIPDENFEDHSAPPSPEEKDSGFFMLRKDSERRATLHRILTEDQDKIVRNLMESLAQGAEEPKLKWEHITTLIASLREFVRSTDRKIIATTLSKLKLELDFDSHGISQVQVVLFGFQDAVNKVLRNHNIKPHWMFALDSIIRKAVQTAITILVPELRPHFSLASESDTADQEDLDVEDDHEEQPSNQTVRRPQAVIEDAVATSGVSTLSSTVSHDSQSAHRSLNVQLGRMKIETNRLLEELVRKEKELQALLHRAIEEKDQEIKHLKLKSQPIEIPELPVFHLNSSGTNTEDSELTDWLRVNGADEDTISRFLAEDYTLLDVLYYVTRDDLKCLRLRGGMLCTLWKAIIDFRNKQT
In words: ASK1 enzymatic inhibition in vitro by HTRF. Format: biochemical. The note with it: HTRF method, single concentration 100 nM; for inhibition at 0.1 µM: read-out: Inhibition Rate %. The source says: In this detection, homogeneous time resolved fluorescence (HTRF) was used to evaluate the inhibitory level of the compound on the enzyme activity of recombinant human ASK1 in an in vitro reaction system.
The basic principle of the detection of enzymatic activity in vitro: a specific substrate labeled with biotin at the end is phosphorylated under the action of a kinase, and the reaction product is mixed with the EU3+-Cryptate-labeled antibody that recognizes the phosphorylation site and XL665-labeled streptavidin. When the two fluorescent molecules are bound to the substrate at the same time, Eu will produce […] fluorescence under the stimulation of external excitation light (320 nm), and meanwhile, XL665 will be excited by energy transfer to produce 665 nm fluorescence. The phosphorylation of the substrate is evaluated by comparing the changes of fluorescence at two wavelengths (620 nm and 665 nm). […] The basic detection principle is known in the prior art (Cisbio, Nature Method 2006, June 23; DOI:10.1038/NMETH883).
Human recombinant ASK1 (MAP3K5) kinase, 2× kinase reaction buffer, and ATP (10 mM) were purchased from Invitrogen (Cat. No.: PR7349B), and HTRF detection kit, HTRF KinEASE STK discovery kit, was purchased from Cisbio (Cat. No.: 62ST0PEB).
The experimental process was carried out in accordance with the procedures required by the detection reagent manual (https://www.cisbio.com/sites/default/files/ressources/cisbio_ddpi_62ST0PEB.pdf). The details are as follows:
(1) Experimental preparation: the kinase reaction buffer (working solution) is prepared as required and used to dilute the test compound into different concentration gradients (the maximum concentration of the compound is 4 μM).
(2) 10 μL of the enzymatic reaction system (including 2.5 μL of test compound, 5 μL of kinase reaction buffer and 2.5 μL of ATP solution (provided in the kit)) is mixed well and reacted at room temperature for 1 h. The enzymatic reaction is carried out in a 96-well microplate.
(3) EU3+-Cryptate-labeled antibody and XL665-labeled streptavidin are diluted with reaction termination buffer in an appropriate ratio, and 5 μL of each of two diluted detection solutions is added to each reaction well and reacted at room temperature for 2 h.
(4) The reaction is set up with a control reaction at the same time, including a positive control without test compound and a negative control without ASK1 kinase. All detections are carried out in duplicate.
(5) After the reaction, a fluorescence detector (TecanSPARK 10M) is used to detect the fluorescence signal of each well, wherein, the excitation wavelength is 320 nm, and the detected emission wavelengths are 620 nm and 665 nm, respectively.
(6) The 665/620 ratio of each well is calculated respectively, and the 665/620 ratio of the negative control well is subtracted from that of the positive control well to get the basic level of phosphorylation of the substrate. The formula for calculating the enzymatic inhibition rate of the test compound: inhibition rate (%)=1-(ratio of detection wells-ratio of negative wells)/basic level of phosphorylation of the substrate. The phosphorylation inhibition rates are calculated for the test compounds with different concentration gradients, and then the 50% enzymatic inhibiting concentration (IC50) is calculated by using the IC50 calculator. The summary data of the representative compounds of the present invention are as follows (see Table 2).

In the case of `Cc1cc(F)c(C(=O)Nc2cccc(-c3nncn3C(C)C)n2)cc1NC(=O)[C@H]1C[C@@H]1F` [Compound I-18, 2-fluoro-5-((1R,2S)-2-fluorocyclopropyl-1-formamido)-N-(6-(4-isopropyl-4H-1,2,4-triazol-3-yl)pyridin-2-yl)-4-methylbenzamide], the “Inhibition Rate %” value was determined as 34%.

Regarding `C[C@H](n1cnnc1-c1cccc(NC(=O)c2cc(NC(=O)C3CC3)ccn2)n1)C(F)(F)F` [Compound I-10, (S)-4-(cyclopropylformamido)-N-(6-(4-(1,1,1-trifluoropropyl-2-yl)-4H-1,2,4-triazol-3-yl)pyridin-2-yl)pyridin-2-formamide], the “Inhibition Rate %” value is recorded as 44%. One may read the inhibition as the relative decrease from the control value, in per cent. Regarding `Cc1cc(F)c(C(=O)Nc2cccc(-c3nncn3C(C)C)n2)cc1NC(=O)C1CC1` [Compound I-1, 5-(cyclopropylformamido)-2-fluoro-4-methyl-N-(6-(4-isopropyl-4H-1,2,4-triazol-3-yl)pyridin-2-yl)benzamide], the inhibition at 0.1 µM is 54%. For `Cc1cc(F)c(C(=O)Nc2cccc(-c3nncn3[C@@H](C)C(F)(F)F)n2)cc1NC(=O)C1CC1` [Compound I-3, (5)-5-(cyclopropylformamido)-2-fluoro-4-methyl-N-(6-(4-(1,1,1-trifluoropropyl-2-yl)-4H-1,2,4-triazol-3-yl)pyridin-2-yl)benzamide], the “Inhibition Rate %” value came out at 51%.

Regarding `Cc1cc(F)c(C(=O)Nc2cccc(-c3nncn3CC(F)(F)F)n2)cc1NC(=O)C1CC1` [Compound I-4, 5-(cyclopropylformamido)-2-fluoro-4-methyl-N-(6-(4-(2,2,2-trifluoroethyl)-4H-1,2,4-triazol-3-yl)pyridin-2-yl)benzamide], the inhibition at 0.1 µM was determined as 32%. Take `Cc1cc(F)c(C(=O)Nc2cccc(-c3nncn3C(C)C)n2)cc1NC(=O)C1(F)CC1` [Compound I-16, 2-fluoro-N-(6-(4-isopropyl-4H-1,2,4-triazol-3-yl)pyridin-2-yl)-4-methyl-5-(1-(fluoro)cyclopropyl-1-formamido)benzamide]: the “Inhibition Rate %” value came to 21%. The same measure, in the same setting: in the case of `C[C@H](n1cnnc1-c1cccc(NC(=O)c2cc(NC(=O)C3CC3)c(Cl)cc2F)n1)C(F)(F)F` [Compound I-9, (S)-4-chloro-5-(cyclopropylformamido)-2-fluoro-N-(6-(4-(1,1,1-trifluoropropyl-2-yl)-4H-1,2,4-triazol-3-yl)pyridin-2-yl)benzamide] it was 33%; in that of `COC[C@@H](C)n1cnnc1-c1cccc(NC(=O)c2cc(NC(=O)C3CC3)c(C)cc2F)n1` [Compound I-6], 13%. For `Cc1cc(F)c(C(=O)Nc2csc(-c3nncn3[C@@H](C)C(F)(F)F)n2)cc1NC(=O)C1CC1` [Compound I-8], the “Inhibition Rate %” value is recorded as 24%. With `Cc1cc(F)c(C(=O)Nc2cccc(-c3nncn3[C@@H](C)C(F)(F)F)n2)cc1NC(=O)C1CCCC1` [Compound I-19, (S)-5-(cyclopentylformamido)-2-fluoro-4-methyl-N-(6-(4-(1,1,1-trifluoropropyl-2-yl)-4H-1,2,4-triazol-3-yl)pyridin-2-yl)benzamide], the “Inhibition Rate %” value is given as 52%. For the compound `Cc1cc(F)c(C(=O)Nc2cccc(-c3nncn3C(C)C)n2)cc1NC(=O)C1CCC1` [Compound I-14, 5-(cyclobutylformamido)-2-fluoro-N-(6-(4-isopropyl-4H-1,2,4-triazol-3-yl)pyridin-2-yl)-4-methylbenzamide], the inhibition at 0.1 µM turned out to be 42%. As to `Cc1cc(F)c(C(=O)Nc2cccc(-c3nncn3C(C)C)n2)cc1NC(=O)C1CC1c1ccc(F)cc1` (stereo not drawn) [Compound I-13, 2-fluoro-5-(2-(4-fluorophenyl)cyclopropyl-1-formamido)-N-(6-(4-isopropyl-4H-1,2,4-triazol-3-yl)pyridin-2-yl)-4-methylbenzamide], the “Inhibition Rate %” value was 18%.

Consider `C[C@H](n1cnnc1-c1cccc(NC(=O)c2cc(NC(=O)C3CC3)c(F)cn2)n1)C(F)(F)F` [Compound I-11, (S)-4-(cyclopropylformamido)-5-fluoro-N-(6-(4-(1,1,1-trifluoropropyl-2-yl)-4H-1,2,4-triazol-3-yl)pyridin-2-yl)pyridin-2-formamide], for which the “Inhibition Rate %” value came out at 27%. Still for that read-out and setting: the same measure for `Cc1cc(F)c(C(=O)Nc2cccc(-c3nncn3[C@@H](C)C(F)(F)F)n2)cc1NC(=O)C1CCCCCC1` [Compound I-20, (S)-5-(cycloheptylformamido)-2-fluoro-4-methyl-N-(6-(4-(1,1,1-trifluoropropyl-2-yl)-4H-1,2,4-triazol-3-yl)pyridin-2-yl)benzamide]: 16%. With `Cc1cc(F)c(C(=O)Nc2cccc(-c3nncn3C(C)C)n2)cc1NC(=O)[C@H]1C[C@H]1F` [Compound I-17, 2-fluoro-5-((1R,2R)-2-fluorocyclopropyl-1-formamido)-N-(6-(4-isopropyl-4H-1,2,4-triazol-3-yl)pyridin-2-yl)-4-methylbenzamide], the “Inhibition Rate %” value is recorded as 15%.
